{
  "source": "patent US20100292316A1",
  "about": "“IMPROVED THERAPEUTIC METHODS AND COMPOSITIONS COMPRISING CHROMAN RING COMPOUNDS” (Research Development Foundation, priority 2007, published 2010)",
  "key": {"[1]": {"test_system": "GSK3β", "assay": "Western blot of phospho-GSK3β (Ser 9)", "format": "cell-based, human", "conditions": "LNCaP and PC-3-GFP cells, 40 μM α-TEA", "source_text": "Previous studies have shown that α-TEA is an effective inducer of apoptosis in human prostate cancer cells (Anderson et al., 2004). Dose- and time-dependent pro-apoptotic effects of α-TEA in prostate cancer cells are mediated by Fas/FADD/caspase-8/tBid and Fas/Daxx/Ask1/JNK1/2/Bax, leading to activation of caspases-9 and -3. Thus, the Akt inhibiting activity of α-TEA was investigated in prostate cancer cells. Since phosphorylation of Akt at Ser 473 is required for its full activation (Cheng et al., 2005), we examined the phosphorylation status of Akt using an antibody that specifically recognizes Akt phosphorylated at Ser 473 in all three Akt isoforms (Upstate Cell Signaling Solutions (Charlottesville, Va.)). α-TEA decreased the levels of the phosphorylated forms of Akt. […] As verification that the decreases in phosphorylation status of Akt correlated with decreased kinase activity, the phosphorylation status of GSK3β, a downstream Akt target, was evaluated following α-TEA treatments. […] GAPDH levels were assayed with each immunoblot assay as a protein loading control.\nAkt antibodies for the foregoing studies (Akt, Akt1, Akt2, Akt and phospho-Akt) as well as GSK3β and phospho-GSK3β antibodies were purchased from Cell Signaling Technology (Beverly, Mass.)."}, "[2]": {"test_system": "survivin", "assay": "Survivin protein level by immunoblot", "format": "cell-based, human", "conditions": "LNCaP and PC-3-GFP cells, 40 μM α-TEA, time-dependent", "source_text": "Antibodies to human Flip and survivin used in these experiments were purchased from Santa Cruz Biotechnology (Santa Cruz, Calif.)."}},
  "data": [
    {"compound": "Cc1c(C)c2c(c(C)c1OCC(=O)O)CC[C@@](C)(CCC[C@H](C)CCC[C@H](C)CCCC(C)C)O2", "note": "[α-TEA]", "values": [
      {"measurement": "phosphorylation status of pGSK3β (at Ser 9)", "setting": "[1]", "value": "Decreases"},
      {"measurement": "protein levels of survivin", "setting": "[2]", "value": "downregulated"}
    ]}
  ]
}
